Test results: article PMC2816223, “Designed Coiled-Coil Peptides Inhibit the Type Three Secretion System of Enteropathogenic Escherichia coli” (PLoS ONE, 2010)
Ends that are not written are not given here.

Assays:
[1] = system: TTSS-mediated lysis of sheep RBC by EPEC E2348/69; settings: for inhibition of TTSS-mediated RBC lysis caused by E2348/69: peptide 0.56 mg/ml, bacteria preincubated with peptide 1 h, then 5% sheep RBC 3 h at 37°C, released hemoglobin OD 543 nm, relative to EPEC alone (100%), triplicate
Protocol: Twelve-well plates containing peptides and bacteria were incubated for 1 h to allow their interaction. A 5% suspension of RBC was then added, plates were incubated for another 3 h, and supernatants were monitored for released hemoglobin.
K12 means the hemolysis caused by the E. coli non-pathogenic strain. […] Each assay was done by triplicate.
The plates were incubated for 1 h under a 5% CO2 atmosphere to allow the interaction between peptides and bacteria. In turn, red blood cells (RBCs) were separated by centrifugation from fresh defibrinated sheep blood, which was obtained by jugular vein punction, washed three times with 10 mM PBS (pH 7.4) and resuspended at 5% in PBS. Then, 2 ml of the 5% suspension of RBC in PBS was added to the cultures in the plates and incubated for 3 h at 37°C under a 5% CO2 atmosphere. The suspension was removed from the plates and centrifuged at 12,000×g for 1 min. Supernatants were monitored for the presence of released hemoglobin by measuring the OD at 543 nm.

[2] = system: EspA, EspB, EspD and Tir secretion by EPEC E2348/69; experiment: In vitro TTSS protein secretion, Western blot of culture supernatants and bacterial lysates; type: cell-based, enteropathogenic E. coli (EPEC) E2348/69; settings: EPEC incubated 4 h in DMEM with peptide 0.56 mg/ml; for secretion of EspD, Western blot: protein detected in pellet of lysed bacteria
Protocol: EPEC E2348/69 bacterial cultures were incubated in the presence of CoilA or CoilB peptides and concentrated supernatants and bacterial extracts were analyzed by Western blotting using specific antisera directed to EspA, EspB, EspD or Tir. The same amount of cell monolayer was loaded in each lane. pH represents a mock control to rule out the biological influence of alkaline pH used to dissolve peptides. PBS at alkaline pH was used in volumes identical to those in which peptides were added to cultures.
In order to determine the effect of syntethic peptides in the production and excretion of TTSS-proteins by EPEC, cellular and supernatants culture extracts of peptide-treated bacteria were subjected to western blot analysis with specific antisera. The E2348/69 strain grown overnight at 37°C in LB was diluted 1∶100 into 2 ml of DMEM containing CoilA or CoilB peptides at a concentration of 0.56 mg/ml, respectively, and cultured for another 4 h in the presence of 5% CO2. After collecting by centrifugation, bacteria were suspended in 2X SDS sample buffer and boiled for 5 min. The proteins present in culture supernatants were precipitated by the addition of trichloroacetic acid at 20% (wt/vol) and incubated overnight at 4°C. The protein precipitates were then collected by centrifugation at 20,000×g for 25 min, washed twice with 200 µl of ice-cold acetone and resuspended in 20 µl Tris-HCl 10 mM pH 8.8. Whole-cell extracts and culture supernatants were then analyzed by Western blotting using polyclonal rabbit antibodies against EspA, EspB, EspD and Tir recombinant proteins as described by Vilte et al. Primary antibodies were detected with horseradish peroxidase-conjugated goat anti-rabbit IgG (Sigma Chemical Co., St. Louis, MO) diluted 1∶10,000.

[3] = system: EspA filaments on EPEC E2348/69; experiment: Immunogold labeling and TEM of EspA filaments; type: cell-based, enteropathogenic E. coli (EPEC) E2348/69; settings: EPEC incubated 4 h with peptide 0.56 mg/ml, fifty filaments, average with standard deviation, EPEC alone 700±150 nm
Protocol: Since coil peptides are able to inhibit the TTSS by blocking EspA polymerization, we expected a decrement in EspA filaments on the bacterial cell surface upon incubation with coil peptides.
Figure 6 CoilA peptide blocks the formation of EspA filaments. Immunogold EM of EspA filaments on EPEC cultures incubated either with or without CoilA peptide. After incubation of bacterial samples with specific rabbit anti-EspA serum, the samples were observed by TEM. EPEC alone, without peptides (A, C) and EPEC incubated with CoilA (B, D). Bars, 200 nm (A, B), or 100 nm (C, D). Yellow box frames show EspA filaments.
EPEC E2348/69 strain was grown in LB overnight at 37°C without shaking and diluted 1∶100 into DMEM with 0.56 mg/ml of either CoilA or CoilB, in 24-well plates. The plates were incubated for 4 h under a 5% CO2 atmosphere. A 50 µl droplet of bacterial culture was applied to nickel EM grids (mesh 200) coated with 0.25% Formvar resin (Structure Probe, Inc., SPI supplies, PA, USA) for 2 min. Cells were immediately fixed face down for 15 min with 0.1% buffered glutaraldehyde in PBS (pH 7.3). The grids were washed by transfer across 6 drops of PBS and blocked in PBS containing 0.2% bovine serum albumin for 30 min at room temperature. […] Fifty EspA filaments were identified and the size was measured the length is given as an average with a standard deviation.

[4] = system: EPEC E2348/69 adhering to HEp-2 cells; experiment: Fluorescent actin staining (FAS), A/E lesion / pedestal formation in HEp-2 cells; type: cell-based, enteropathogenic E. coli (EPEC) E2348/69; settings: peptide 0.56 mg/ml preincubated 1 h with EPEC, MOI 7, 2 h infection, 100 cells examined; EPEC without peptides 80%
Description: Since CoilA, CoilB and CoilD were able to inhibit the hemolysis caused by EPEC, which could involve translocator proteins at cell membrane level, we decided to explore whether peptides were also able to block effector proteins delivery and thus prevent the formation of A/E lesions in epithelial cells. Thus, peptides interfering in actin polymerization beneath E2348/69 strain adhering to HEp-2 cells were visualized by FAS (fluorescent actin staining). As expected, EPEC bacteria were able to induce actin polymerization for pedestal formation in almost all the cells (Fig. 2A), the A/E lesions were not seen in uninfected cells (Fig. 2B). CoilA or CoilB preincubation with EPEC caused a decrease in pedestal formation in epithelial cells, showing different effectiveness (Fig. 2C and Fig. 2D).
Figure 2 Coiled-coil peptides inhibit A/E lesion formation caused by EPEC. HEp-2 cells were incubated with EPEC E2348/69 either with or without coiled-coil peptides. […] Incubation of HEp-2 cells with the wild type EPEC E2348/69 strain without peptides (EPEC WT); preincubated with CoilA (EPEC+CoilA), or CoilB (EPEC+CoilB) peptide and uninfected cells. The corresponding percentage of HEp-2 cells carrying pedestals, obtained by examining 100 cells, is shown in panel E. EPEC pH represents a mock control to rule out the biological influence of alkaline pH used to dissolve peptides; PBS at alkaline pH was used in volumes identical to those in which peptides were added to HEp-2 cells.
HEp-2 cells (5×10^4) were seeded in eight well chamber slides (NUNC, Lab-Tek, USA) and incubated at 37°C under a 5% CO2 atmosphere up to 70–90% confluence. Overnight LB culture of the EPEC E2348/69 strain was diluted 1∶20 into 3 ml of DMEM and cultured for 1 h. CoilA, CoilB or CoilD peptides were then added to the culture at a concentration of 0.56 mg/ml and allowed to interact with the bacteria for 1 h at 37°C under a 5% CO2 atmosphere. […] The cells were observed under fluorescence microscopy with a confocal laser microscope (Leica TC SP2).

[5] = system: EspA polymerization and Tir translocation by EPEC E2348/69; experiment: Immunofluorescence of EspA and Tir on infected HEp-2 cells (confocal microscopy); type: cell-based, enteropathogenic E. coli (EPEC) E2348/69; settings: bacteria preincubated with peptide 0.56 mg/ml
Protocol: (§1) For that, HEp-2 cells were treated with EPEC preincubated either with or without CoilA or CoilB, and EspA and Tir were then visualized using specific antibodies and confocal microscopy.

[6] = system: EPEC adherence to HEp-2 cells; experiment: Non-adherent bacteria in supernatant of infected HEp-2 cells, HEp-2 detaching; type: cell-based, enteropathogenic E. coli (EPEC) E2348/69; settings: data not shown; for non-adherent bacteria in the supernatant of HEp-2 cells vs EPEC without peptides: EPEC preincubated with peptide; for HEp-2 detaching activity (cytopathic effect) by EPEC: bacteria preincubated with peptide
Protocol: as §1
(§2) HEp-2 monolayers were inoculated with bacteria pretreated with CoilA or CoilB peptides as described for fluorescent actin staining. After infection, the supernatant was removed from the plates and serial dilutions were cultured overnight at 37°C on LB agar plates to determine the viability of bacteria. In turn, the monolayers were resuspended in 40 µl of lysis buffer (1% Triton X-100) and protease inhibitor mix (Complete™ protease inhibitors, Roche). This material was subjected to Western blotting as mentioned above.

[7] = system: EspA and Tir associated to HEp-2 cells infected with EPEC E2348/69; experiment: Western blot of EPEC-secreted proteins associated to HEp-2 cells; type: cell-based, enteropathogenic E. coli (EPEC) E2348/69; settings: HEp-2 cells treated 2 h with EPEC preincubated with peptide, washed, lysed
Protocol: To further determine the effect of CoilA and CoilB on EspA polymerization and Tir translocation were also examined by Western blotting. For that, HEp-2 cells were treated for 2 h with either EPEC alone or preincubated with each of the peptides and exhaustively washed. Cell extracts were prepared and the contents of EspA and Tir (Fig. 4) analyzed by Western blot using specific antibodies. […] The effective amount of EspA and Tir associated per cell may be even higher in non-treated (without peptides) cell cultures because it could be underestimated as some HEp-2 cells are detached from the surface upon infection. The pH buffering solution used to dilute CoilA and CoilB peptides had no effect and the results were similar to the positive control (Fig. 4).
Figure 4 CoilA and CoilB peptides block EspA polymerization and Tir translocation. Cell monolayers were infected with bacteria pretreated with peptides, washed, and lysed for Western blot detection of EspA and Tir proteins with specific rabbit antisera. pH represents a mock control to rule out the biological influence of alkaline pH used to dissolve peptides; PBS at alkaline pH was used in a volume identical to those in which peptides were added to HEp-2 cells.
as §2

[8] = Solubilization of peptides in PBS pH 10.0 / precipitation; type: physicochemical
Protocol: CoilA, CoilB, CoilC, CoilD and PepTir peptides were synthesized commercially (Genbiotech, Buenos Aires). Peptides were solubilized with PBS (pH 10.0). […] EPEC E2348/69 [42] was kindly provided by Marta Rivas, ANLIS-Instituto Nacional de Microbiología Dr. Carlos G. Malbrán, Buenos Aires. […] Bacteria were grown in Luria Bertani broth (LB) or Dulbecco's modified Eagle medium (DMEM) lacking phenol red (Gibco-BRL), without antibiotics and bovine fetal serum at 37°C without shaking.

Row | Sequence | inhibition of TTSS-mediated RBC lysis caused by E2348/69 [1] | hemolysis at reduced peptide concentration ([1]; peptide 0.15 mg/ml, preincubated with EPEC E2348/69, sheep RBC, relative to EPEC alone) [%] | secretion of EspB to the culture supernatant, Western blot [2] | secretion of Tir in vitro, Western blot [2] | secretion of EspD, Western blot [2] | EspA filament length [3] | HEp-2 cells showing pedestals [4] | secreted EspA (immunofluorescence) ([5]; anti-EspA sera) | translocated Tir (immunofluorescence) ([5]; anti-Tir sera) | non-adherent bacteria in the supernatant of HEp-2 cells vs EPEC without peptides [6] [fold] | HEp-2 detaching activity (cytopathic effect) by EPEC [6] | Tir in the cells, Western blot [7] | amount of EspA associated to the cells and attached bacteria (incl. EspA polymers), Western blot [7] | tendency to precipitate / aggregation ([8]; observed in preparation for electron micrographs) | solubility in PBS (pH 10.0) ([8]; peptides solubilized with PBS pH 10.0)
1 | LSDSVPELLNSTDLV [CoilC] | did not show inhibitory activity | – | – | – | – | – | – | – | – | – | – | – | – | – | –
2 | LTTTVNNSQLEIQQM [CoilA] | around 95% | 50 | not clearly observed | lightly decreased | affected | about 250±50 nm | 20% | drastic decrease | drastic decrease | 7 | absent | significant decrease | drastically decreased | – | –
3 | VNDPEKMLELQFAVQ [CoilD] | 25% | – | – | – | – | – | unable to inhibit pedestal formation | – | – | – | – | – | – | – | –
4 | KVNIDENGNAI [PepTir] | did not show inhibitory activity | – | – | – | – | – | – | – | – | – | – | – | – | – | –
5 | MSNTLNLLTSARSDM [CoilB] | around 95% | – | blocked the secretion of EspB | lightly decreased | affected | – | 2% | – | – | 40 | absent | significant decrease | drastically decreased | tendency to precipitate forming clumps | not completely soluble
